Assay results published in PubChem BioAssay AID330 (DTP/NCI, 2004).
Values joined by “and” are separate entries in the source; they are usually repeats but may differ in a detail not shown here. Equal values may be shown once. Toxic doses and inconclusive results are not listed.

System: P388 leukemia ip, CD2F1 mice, survival T/C
Test: NCI In Vivo Anticancer Drug Screen. Data for tumor model P388 Leukemia (intraperitoneal) in CD2F1 (CDF1) mice
Conditions: endpoint: median survival time, higher = longer survival
Procedure, shortened: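 Mice carrying the transplanted tumor received test compound or vehicle. Survival was recorded in each group, and the value is the treated-group measurement divided by that of the vehicle-treated control group.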

[1] = dose: 50.0 mg/kg/injection, schedule: Q01DX009 (ip), vehicle: Klucel (hydroxypropylcellulose) (HPC)
[2] = dose: 100.0 mg/kg/injection, schedule: Q01DX009 (ip), vehicle: Klucel (hydroxypropylcellulose) (HPC)
[3] = dose: 200.0 mg/kg/injection, schedule: Q01DX009 (ip), vehicle: Klucel (hydroxypropylcellulose) (HPC)
[4] = dose: 50.0 mg/kg/injection, schedule: Q01DX005 (ip), vehicle: saline with Tween-80
[5] = dose: 100.0 mg/kg/injection, schedule: Q01DX005 (ip), vehicle: saline with Tween-80
[6] = dose: 200.0 mg/kg/injection, schedule: Q01DX005 (ip), vehicle: saline with Tween-80
[7] = dose: 50.0 mg/kg/injection, schedule: Q01DX009 (ip), vehicle: saline

For O=C(CBr)N1c2ccccc2Sc2c1ccc1ccccc21, the T/C (dose: 6.25 mg/kg/injection, schedule: Q01DX009 (ip), vehicle: Klucel (hydroxypropylcellulose) (HPC)) was 86 % of control, the T/C (dose: 12.5 mg/kg/injection, schedule: Q01DX009 (ip), vehicle: Klucel (hydroxypropylcellulose) (HPC)) was 111 % of control and the T/C (dose: 25.0 mg/kg/injection, schedule: Q01DX009 (ip), vehicle: Klucel (hydroxypropylcellulose) (HPC)) was 117 % of control. The T/C [1] was 117 % of control, the T/C (dose: 50.0 mg/kg/injection, schedule: Q04DX003 (ip), vehicle: Klucel (hydroxypropylcellulose) (HPC)) was 99 % of control and 114 % of control and the T/C [2] was 120 % of control. The T/C (dose: 100.0 mg/kg/injection, schedule: Q04DX003 (ip), vehicle: Klucel (hydroxypropylcellulose) (HPC)) was 99 % of control and 113 % of control and 120 % of control, the T/C [3] was 120 % of control and the T/C (dose: 200.0 mg/kg/injection, schedule: Q04DX003 (ip), vehicle: Klucel (hydroxypropylcellulose) (HPC)) was 101 % of control and 120 % of control and 87 % of control. For the same compound, the T/C (dose: 400.0 mg/kg/injection, schedule: Q04DX003 (ip), vehicle: Klucel (hydroxypropylcellulose) (HPC)) was 106 % of control and 123 % of control.
COc1cc2c(cc1OC)C1=C(CC2)C2CCCN2CC1 (stereo unspecified) was tested, and the T/C (dose: 12.5 mg/kg/injection, schedule: Q04DX003 (ip), vehicle: saline) was 104 % of control and the T/C (dose: 25.0 mg/kg/injection, schedule: Q04DX003 (ip), vehicle: saline) was 100 % of control.
For CCCCCCCCCC(C)CC(=O)NCCCN(C)CCCCN(C)C (stereo unspecified) (tested in a mixture with another compound), the T/C (dose: 0.78 mg/kg/injection, schedule: Q01DX009 (ip), vehicle: saline with Tween-80) was 91 % of control, the T/C (dose: 1.56 mg/kg/injection, schedule: Q01DX009 (ip), vehicle: saline with Tween-80) was 94 % of control and the T/C (dose: 3.13 mg/kg/injection, schedule: Q01DX009 (ip), vehicle: saline with Tween-80) was 97 % of control. For the same compound, the T/C (dose: 6.25 mg/kg/injection, schedule: Q01DX009 (ip), vehicle: saline with Tween-80) was 100 % of control.
For COc1ccc(-c2coc3c4c(ccc3c2=O)OC(C)(C)C=C4)cc1, the T/C [4] was 101 % of control, the T/C [5] was 99 % of control and the T/C [6] was 100 % of control.
CC[C@@]1(O)C(=O)OCc2c1cc1n(c2=O)Cc2cc3ccccc3nc2-1 was tested, and the T/C (dose: 0.25 mg/kg/injection, schedule: Q04DX003 (ip), vehicle: other) was 109 % of control, the T/C (dose: 0.5 mg/kg/injection, schedule: Q04DX003 (ip), vehicle: other) was 119 % of control and 122 % of control and the T/C (dose: 0.79 mg/kg/injection, schedule: Q04DX003 (ip), vehicle: other) was 151 % of control. The T/C (dose: 1.0 mg/kg/injection, schedule: Q04DX003 (ip), vehicle: other) was 163 % of control, the T/C (dose: 1.5 mg/kg/injection, schedule: Q01DX005 (ip), vehicle: saline with Tween-80) was 153 % of control and 161 % of control (2×) and the T/C (dose: 1.57 mg/kg/injection, schedule: Q04DX003 (ip), vehicle: other) was 161 % of control. For the same compound, the T/C (dose: 1.6 mg/kg/injection, schedule: Q04DX003 (ip), vehicle: saline with Tween-80) was 150 % of control, the T/C (dose: 2.0 mg/kg/injection, schedule: Q04DX003 (ip), vehicle: other) was 157 % of control and 158 % of control and the T/C (dose: 2.1 mg/kg/injection, schedule: Q01DX005 (ip), vehicle: saline with Tween-80) was 187 % of control. For the same compound, the T/C (dose: 2.5 mg/kg/injection, schedule: Q04DX003 (ip), vehicle: saline with Tween-80) was 181 % of control, the T/C (dose: 3.0 mg/kg/injection, schedule: Q01DX005 (ip), vehicle: saline with Tween-80) was 192 % of control and 194 % of control and 196 % of control and the T/C (dose: 3.13 mg/kg/injection, schedule: Q04DX003 (ip), vehicle: other) was 278 % of control. The T/C (dose: 3.6 mg/kg/injection, schedule: Q01DX005 (ip), vehicle: saline with Tween-80) was 277 % of control, the T/C (dose: 4.0 mg/kg/injection, schedule: Q04DX003 (ip), vehicle: other) was 155 % of control and 197 % of control and 245 % of control and the T/C (dose: 5.0 mg/kg/injection, schedule: Q04DX002 (ip), vehicle: saline with Tween-80) was 175 % of control. For the same compound, the T/C (dose: 8.0 mg/kg/injection, schedule: Q04DX003 (ip), vehicle: other) was 92 % of control and the T/C (dose: 12.0 mg/kg/injection, schedule: Q01DX005 (ip), vehicle: saline with Tween-80) was 87 % of control.
For COC(=O)N1CCC(N)(C#N)CC1, the T/C (dose: 12.5 mg/kg/injection, schedule: Q04DX003 (ip), vehicle: Klucel (hydroxypropylcellulose) (HPC)) was 100 % of control and the T/C (dose: 25.0 mg/kg/injection, schedule: Q04DX003 (ip), vehicle: Klucel (hydroxypropylcellulose) (HPC)) was 93 % of control.
For C[n+]1cccc(C(N)=O)c1, the T/C (dose: 25.0 mg/kg/injection, schedule: Q01DX009 (ip), vehicle: water) was 102 % of control, the T/C (dose: 50.0 mg/kg/injection, schedule: Q01DX009 (ip), vehicle: water) was 112 % of control and the T/C (dose: 100.0 mg/kg/injection, schedule: Q01DX009 (ip), vehicle: water) was 112 % of control. The T/C (dose: 200.0 mg/kg/injection, schedule: Q01DX009 (ip), vehicle: water) was 110 % of control and the T/C (dose: 400.0 mg/kg/injection, schedule: Q01DX009 (ip), vehicle: water) was 100 % of control.
In the case of [CH3][Sn]([CH3])([N]=C=S)[N]=C=S, the T/C (dose: 6.25 mg/kg/injection, schedule: Q01DX009 (ip), vehicle: saline) is reported as 86 % of control and 93 % of control, the T/C (dose: 12.5 mg/kg/injection, schedule: Q01DX009 (ip), vehicle: saline) is reported as 100 % of control and 102 % of control and 106 % of control and the T/C (dose: 25.0 mg/kg/injection, schedule: Q01DX009 (ip), vehicle: saline) is reported as 99 % of control and 102 % of control. The T/C [7] was 99 % of control and 103 % of control and the T/C (dose: 50.0 mg/kg/injection, schedule: Q01DX009 (ip), vehicle: suspension in saline) was 114 % of control.
With OCC(O)C(O)C(O)C(O)CO (stereo unspecified) the T/C (dose: 400.0 mg/kg/injection, schedule: Q01DX009 (ip), vehicle: saline) was 107 % of control, the T/C (dose: 1200.0 mg/kg/injection, schedule: Q01DX009 (ip), vehicle: saline) was 110 % of control and the T/C (dose: 1600.0 mg/kg/injection, schedule: Q01DX005 (ip), vehicle: saline) was 106 % of control. The T/C (dose: 2400.0 mg/kg/injection, schedule: Q01DX005 (ip), vehicle: saline) was 104 % of control.
For O=C(CCl)N/N=C(\c1ccccc1)c1ccc(Br)cc1, the T/C (dose: 45.0 mg/kg/injection, schedule: Q01DX009 (ip), vehicle: saline with Tween-80) was 103 % of control, the T/C (dose: 90.0 mg/kg/injection, schedule: Q01DX009 (ip), vehicle: saline with Tween-80) was 98 % of control and the T/C (dose: 180.0 mg/kg/injection, schedule: Q01DX009 (ip), vehicle: saline with Tween-80) was 97 % of control.
C/C=C1/C[N+]2(C)CCC34c5ccccc5NC32C(O)CC1C4(CO)C(=O)OC (stereo unspecified) was tested, and the T/C (dose: 2.0 mg/kg/injection, schedule: Q01DX009 (ip), vehicle: saline) was 109 % of control, the T/C (dose: 4.0 mg/kg/injection, schedule: Q01DX009 (ip), vehicle: saline) was 106 % of control and the T/C (dose: 8.0 mg/kg/injection, schedule: Q01DX009 (ip), vehicle: saline) was 100 % of control. For the same compound, the T/C (dose: 16.0 mg/kg/injection, schedule: Q01DX009 (ip), vehicle: saline) was 106 % of control.
With CC(=O)OC1C=CN(C(C)=O)C(SC(C)(C)C)C1(C)O (stereo unspecified) the T/C [1] was 101 % of control and 119 % of control, the T/C [2] was 107 % of control and 112 % of control and the T/C [3] was 113 % of control and 120 % of control. For the same compound, the T/C (dose: 400.0 mg/kg/injection, schedule: Q01DX009 (ip), vehicle: Klucel (hydroxypropylcellulose) (HPC)) was 110 % of control.
Cc1ccc(N)c2ccccc12 was tested, and the T/C [7] was 117 % of control and the T/C (dose: 100.0 mg/kg/injection, schedule: Q01DX009 (ip), vehicle: saline) was 112 % of control.
In the case of C(=NCCN=Cc1cc2c(c3ccccc13)CCCC2)c1cc2c(c3ccccc13)CCCC2, the T/C [4] is reported as 96 % of control, the T/C [5] is reported as 91 % of control and the T/C [6] is reported as 88 % of control.
CC(C)n1c(=O)nc(-c2ccccc2)c2cc3c(cc21)OCO3 was tested, and the T/C [1] was 106 % of control, the T/C [2] was 108 % of control and the T/C [3] was 91 % of control.
In the case of O=C(NCCNC(=O)c1cccnc1)c1cccnc1, the T/C [4] is reported as 118 % of control, the T/C [5] is reported as 108 % of control and the T/C [6] is reported as 111 % of control.
With Nc1nc(S)cc(=O)[nH]1 the T/C (dose: 50.0 mg/kg/injection, schedule: Q01DX009 (ip), vehicle: saline with Tween-80) was 91 % of control, the T/C (dose: 100.0 mg/kg/injection, schedule: Q01DX009 (ip), vehicle: saline with Tween-80) was 108 % of control and the T/C (dose: 200.0 mg/kg/injection, schedule: Q01DX009 (ip), vehicle: saline with Tween-80) was 94 % of control. The T/C (dose: 400.0 mg/kg/injection, schedule: Q01DX009 (ip), vehicle: saline with Tween-80) was 99 % of control.
O=C1Oc2nc3ccccc3cc2/C1=C/c1ccccc1 was tested, and the T/C (dose: 100.0 mg/kg/injection, schedule: Q04DX002 (ip), vehicle: saline with Tween-80) was 89 % of control, the T/C (dose: 200.0 mg/kg/injection, schedule: Q04DX002 (ip), vehicle: saline with Tween-80) was 92 % of control and the T/C (dose: 400.0 mg/kg/injection, schedule: Q04DX002 (ip), vehicle: saline with Tween-80) was 99 % of control.
